Each structure is given as a SMILES string. Counter-ions that a name gives are not always drawn.

Experiment [1] deals with T1, cold-active Vibrio alkaline phosphatase (VAP) (Vibrio sp. G15-21, UniProt Q93P54).
T1 sequence (Q93P54 20-521): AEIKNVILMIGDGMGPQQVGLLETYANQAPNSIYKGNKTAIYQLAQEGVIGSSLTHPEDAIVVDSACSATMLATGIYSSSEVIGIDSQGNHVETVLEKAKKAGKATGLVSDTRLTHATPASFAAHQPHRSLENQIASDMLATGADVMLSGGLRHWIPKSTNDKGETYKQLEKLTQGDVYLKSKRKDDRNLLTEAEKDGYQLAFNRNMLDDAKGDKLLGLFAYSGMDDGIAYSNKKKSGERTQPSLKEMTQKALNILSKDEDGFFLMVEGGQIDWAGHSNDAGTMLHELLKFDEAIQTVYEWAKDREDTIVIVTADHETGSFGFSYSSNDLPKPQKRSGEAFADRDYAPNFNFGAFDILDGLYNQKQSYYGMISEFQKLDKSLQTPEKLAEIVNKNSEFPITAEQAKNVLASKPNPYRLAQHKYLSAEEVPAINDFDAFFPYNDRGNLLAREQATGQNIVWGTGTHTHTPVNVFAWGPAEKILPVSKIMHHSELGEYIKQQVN
Put plainly: inhibition of native alkaline phosphatase activity at pH […] (n = […]). It counts as biochemical.

Experiment [2] concerns the target phosphoinositide-specific phospholipase C (PI-PLC) (Bacillus cereus, UniProt P14262). The experiment can be described thus: inhibition of phospholipase activity of commercial PI-PLC on PI-containing large unilamellar vesicles (turbidity/aggregation assay). It is filed as biochemical.

Sequence of phosphoinositide-specific phospholipase C (PI-PLC) (P14262 32-329 limits assumed): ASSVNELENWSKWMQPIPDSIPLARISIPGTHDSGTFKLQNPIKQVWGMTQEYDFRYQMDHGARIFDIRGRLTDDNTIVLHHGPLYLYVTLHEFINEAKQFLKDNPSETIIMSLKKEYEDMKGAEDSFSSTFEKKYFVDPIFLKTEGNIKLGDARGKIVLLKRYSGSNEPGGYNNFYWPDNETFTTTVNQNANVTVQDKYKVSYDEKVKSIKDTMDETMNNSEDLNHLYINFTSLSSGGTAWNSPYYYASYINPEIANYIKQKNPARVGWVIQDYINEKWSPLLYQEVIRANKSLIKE

Take `NCCc1ccc(S(=O)(=O)F)cc1` [AEBSF, 4-(2-aminoethyl) benzenesulfonyl fluoride hydrochloride]: the IC50 in experiment [1] worked out at 350 µM; in experiment [2], 18 µM.

The record behind these values is publication PMC3733634, “A Computational Module Assembled from Different Protease Family Motifs Identifies PI PLC from Bacillus cereus as a Putative Prolyl Peptidase with a Serine Protease Scaffold” (PLoS ONE, 2013).
